Experimental data taken from patent publication US20110230472A1, “RING-FUSED AZOLE DERIVATIVE HAVING PI3K-INHIBITING ACTIVITY” (Shionogi & Co., Ltd., priority 2008, published 2011).

Target: PI-3 kinase γ (Homo sapiens, UniProt P48736)
Assay: PI3Kγ inhibitory activity, PI3-kinase HTRF assay (inhibition ratio)
Type: biochemical
Settings: 0.5 h, PI3Kγ; for inhibition at 50 µM: compound at 50 μM; for inhibition at 10 µM: compound at 10 μM
Description: The PI3Kγ inhibitory activity of a compound was evaluated using PI3-kinase HTRF™ assay (Millipore) according to the following procedure:
To each well of a testing plate, 5 μL of a compound solution containing 10% DMSO (200 μmol/L or 40 μmol/L as the concentration of the compound), 5 μL of a substrate solution (40 μmol/L phosphatidylinositol (4,5)-bisphosphate, 20 mmol/L MgCl2, 10 mmol/L DTT), and 5 μL of a enzyme solution (80 μg/mL PI-3 kinase γ, 10 mmol/L MgCl2, 5 mmol/L DTT) were added, and then allowed to stand for 10 minutes.
Then, 5 μL of a reaction solution (40 μmol/L ATP, 10 mmol/L MgCl2, 5 mmol/L DTT) was added thereto. After reacting for 30 minutes at room temperature, 5 μL of a solution containing EDTA and biotinylated phosphatidylinositol (3,4,5)-triphosphate were added to quench the reaction.
5 μL of a detection reagent containing a europium-labeled anti-GST antibody, the GST-tagged PH domain, and allophycocyanin-labeled streptavidin was added thereto. After 18 hours, HTRF (excitation wavelength: 330 nm, measured wavelengths: 620 nm and 665 nm) was measured.
HTRF ratio was defined as the value obtained by dividing the amount of fluorescence obtained at the measured wavelength 665 nm by the amount of fluorescence obtained at 620 nm. The HTRF ratio in the absence of a compound was defined as 100% activity and the HTRF ratio in the absence of PI-3 kinase γ was defined as 0% activity to calculate an inhibition ratio which was defined as the PI3Kγ inhibitory activity of a compound at 50 μmol/L or 10 μmol/L.

PI-3 kinase γ, sequence (P48736 whole entry): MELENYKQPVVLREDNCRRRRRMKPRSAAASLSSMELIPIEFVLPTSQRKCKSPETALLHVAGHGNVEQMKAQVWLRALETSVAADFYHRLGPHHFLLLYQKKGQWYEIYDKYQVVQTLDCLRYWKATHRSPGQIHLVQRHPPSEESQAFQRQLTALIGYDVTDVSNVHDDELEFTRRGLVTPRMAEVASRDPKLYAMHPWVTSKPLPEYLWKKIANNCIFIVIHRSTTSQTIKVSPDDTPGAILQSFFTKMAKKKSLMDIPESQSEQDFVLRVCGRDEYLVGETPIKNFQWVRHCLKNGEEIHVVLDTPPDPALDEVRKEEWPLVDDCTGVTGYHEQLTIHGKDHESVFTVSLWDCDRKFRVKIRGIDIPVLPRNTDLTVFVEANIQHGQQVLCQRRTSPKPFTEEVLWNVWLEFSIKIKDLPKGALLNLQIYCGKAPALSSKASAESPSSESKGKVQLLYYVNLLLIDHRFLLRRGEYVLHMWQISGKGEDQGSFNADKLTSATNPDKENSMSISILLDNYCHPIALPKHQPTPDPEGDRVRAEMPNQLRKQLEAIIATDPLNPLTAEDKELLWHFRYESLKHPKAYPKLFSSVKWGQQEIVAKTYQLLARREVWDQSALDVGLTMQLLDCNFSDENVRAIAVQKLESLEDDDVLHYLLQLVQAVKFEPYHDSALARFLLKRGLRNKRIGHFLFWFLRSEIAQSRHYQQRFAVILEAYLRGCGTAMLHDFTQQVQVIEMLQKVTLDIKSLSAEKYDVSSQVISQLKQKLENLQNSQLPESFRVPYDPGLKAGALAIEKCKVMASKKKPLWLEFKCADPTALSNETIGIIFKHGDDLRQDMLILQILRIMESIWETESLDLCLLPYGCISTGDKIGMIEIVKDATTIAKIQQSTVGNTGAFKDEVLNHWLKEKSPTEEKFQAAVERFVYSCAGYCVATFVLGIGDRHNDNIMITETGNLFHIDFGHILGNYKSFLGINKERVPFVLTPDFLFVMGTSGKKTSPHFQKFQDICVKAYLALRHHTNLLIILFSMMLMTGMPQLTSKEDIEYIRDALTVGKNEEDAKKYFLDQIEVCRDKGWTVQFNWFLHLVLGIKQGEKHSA

| SMILES | inhibition at 50 µM | inhibition at 10 µM |
| --- | --- | --- |
| CNC(=O)Nc1cc2n(n1)CCN2c1cc(Br)cc(C(=O)N2CCOCC2)c1 [Compound I-173] | ≥ 95% | – |
| CNC(=O)Nc1cc2n(n1)CCN2c1cc(Br)cc(C(=O)NCCC(=O)OC(C)(C)C)c1 [Compound I-174] | ≥ 95% | – |
| CNC(=O)Nc1cc2n(n1)CCN2c1cc(Br)cc(C(=O)Nc2cccc(C(=O)OC(C)(C)C)c2)c1 [Compound I-175] | 94% | – |
| CNC(=O)Nc1cc2n(n1)CCN2c1ccc2ccccc2c1 [Compound I-176] | ≥ 95% | – |
| CNC(=O)Nc1cc2n(n1)CCN2c1cc(Br)cc(C(N)=O)c1 [Compound I-178] | ≥ 95% | – |
| CNC(=O)Nc1cc2n(n1)CCN2c1cc(Br)cc(C(=O)NC)c1 [Compound I-179] | ≥ 95% | – |
| CNC(=O)Nc1cc2n(n1)CCN2c1cc(Br)cc(C(=O)NC(C)(C)C)c1 [Compound I-180] | ≥ 95% | – |
| CNC(=O)Nc1cc2n(n1)CCN2c1cc(Br)cc(C(=O)N2CCN(C(=O)OC(C)(C)C)CC2)c1 [Compound I-182] | 79% | – |
| CNC(=O)Nc1cc2n(n1)CCN2c1cc(Br)cc(C(=O)NCCOC)c1 [Compound I-183] | ≥ 95% | – |
| CNC(=O)Nc1cc2n(n1)CCN2c1ccc(F)c(C(=O)OC(C)(C)C)c1 [Compound I-184] | ≥ 95% | – |
| CNC(=O)Nc1cc2n(n1)CCN2c1cc(Br)cc(C(=O)NCCC(=O)O)c1 [Compound I-186] | 89% | – |
| CNC(=O)Nc1cc2n(n1)CCN2c1cccc(-c2csc(NC(=O)OC(C)(C)C)n2)c1 [Compound I-188] | 91% | – |
| CNC(=O)Nc1cc2n(n1)CCN2c1ccc(F)c(C(=O)O)c1 [Compound I-189] | ≥ 95% | – |
| CNC(=O)Nc1cc2n(n1)CCN2c1cccc(S(C)(=O)=O)c1 [Compound I-191] | ≥ 95% | – |
| CNC(=O)Nc1cc2n(n1)CCN2c1cccc(-c2csc(N)n2)c1 [Compound I-192] | ≥ 95% | – |
| CNC(=O)Nc1cc2n(n1)CCN2c1ccc2c(c1)CCC2=O [Compound I-193] | ≥ 95% | – |
| CNC(=O)Nc1cc2n(n1)CCN2c1ccc2c(c1)CCNC2=O [Compound I-194] | 95% | – |
| CNC(=O)Nc1cc2n(n1)CCN2c1cc(Br)cc(C(=O)N(C)C)c1 [Compound I-195] | 93% | – |
| CCOC(=O)c1sc(N2CCn3nc(NC(=O)NC)cc32)nc1C [Compound I-196] | 79% | – |

| SMILES | inhibition at 50 µM | inhibition at 10 µM |
| --- | --- | --- |
| CNC(=O)Nc1cc2n(n1)CCN2c1cc(C(=O)N2CCOCC2)cc(-c2cccnc2)c1 [Compound I-199] | 89% | – |
| CNC(=O)Nc1cc2n(n1)CCN2c1nc(C)c(C(=O)O)s1 [Compound I-201] | ≥ 95% | – |
| COc1cc(N2CCc3nc(NC(=O)c4cnco4)sc3C2)nc(OC)n1 [Compound I-204] | 88% | – |
| COc1cc(N2CCc3nc(NC(=O)NCCC(=O)N4CCOCC4)sc3C2)nc(OC)n1 [Compound I-207] | ≥ 95% | – |
| CNC(=O)Nc1cc2n(n1)CCN2c1cc(C(=O)N2CCOCC2)cc(-c2cnc(N)nc2)c1 [Compound I-209] | ≥ 95% | – |
| CNC(=O)Nc1cc2n(n1)CCN2c1cc(C(=O)N2CCOCC2)cc(-c2ccc(N)cc2)c1 [Compound I-210] | ≥ 95% | – |
| CCOC(=O)c1ccc(N2CCn3nc(NC(=O)NC)cc32)s1 [Compound I-211] | 89% | – |
| CC(C)(C)OC(=O)CCNC(=O)Nc1cc2n(n1)CCN2c1cccc(Cl)c1 [Compound I-212] | 80% | – |
| O=C(O)CCNC(=O)Nc1cc2n(n1)CCN2c1cccc(Cl)c1 [Compound I-215] | ≥ 95% | – |
| CNC(=O)Nc1cc2n(n1)CCN2c1ccc2c(c1)C(=O)CC2 [Compound I-216] | ≥ 95% | – |
| O=C(NCCC(=O)N1CCOCC1)Nc1cc2n(n1)CCN2c1cccc(Cl)c1 [Compound I-218] | ≥ 95% | – |
| O=C(Nc1cc2n(n1)CCN2c1cccc(Cl)c1)c1ccccc1 [Compound I-219] | ≥ 95% | – |
| CNC(=O)Nc1cc2n(n1)CCN2c1cc(C(=O)N2CCOCC2)cc(-c2cccc(O)c2)c1 [Compound I-220] | ≥ 95% | – |
| O=C(Nc1cc2n(n1)CCN2c1cccc(Cl)c1)c1cnco1 [Compound I-221] | ≥ 95% | – |
| CNC(=O)Nc1cc2n(n1)CCN2c1cc(Oc2ccccc2)cc(C(=O)N2CCOCC2)c1 [Compound I-223] | 91% | – |
| CNC(=O)Nc1cc2n(n1)CCN2c1cc(/C=C/c2ccccc2)cc(C(=O)N2CCOCC2)c1 [Compound I-225] | 93% | – |
| CNC(=O)Nc1cc2n(n1)CCN2c1ccc(C(=O)N(C)C)s1 [Compound I-226] | ≥ 95% | – |
| CNC(=O)Nc1cc2n(n1)CCN2c1ccc2c(c1)NC(=O)CC2 [Compound I-227] | ≥ 95% | – |
| CNC(=O)Nc1cc2n(n1)CCN2c1cc(C#Cc2ccccc2)cc(C(=O)N2CCOCC2)c1 [Compound I-228] | 85% | – |

| SMILES | inhibition at 50 µM | inhibition at 10 µM |
| --- | --- | --- |
| CNC(=O)Nc1cc2n(n1)CCN2c1cc(C(=O)N2CCOCC2)cc(C2=CCCCC2)c1 [Compound I-231] | ≥ 95% | – |
| CNC(=O)Nc1nc2c(s1)CN(c1cc(Oc3ccccc3)nc(OCCCOCc3ccccc3)n1)CC2 [Compound I-232] | 76% | – |
| CNC(=O)Nc1cc2n(n1)CCN2c1cc(C#CCOC)cc(C(=O)N2CCOCC2)c1 [Compound I-233] | 84% | – |
| O=C(O)CC(=O)Nc1cc2n(n1)CCN2c1cccc(Cl)c1 [Compound I-235] | 89% | – |
| CC(=O)N1CCC(C(=O)Nc2cc3n(n2)CCN3c2cccc(Cl)c2)CC1 [Compound I-236] | 88% | – |
| O=C(Nc1cc2n(n1)CCN2c1cccc(Cl)c1)C1CCCC1 [Compound I-237] | 84% | – |
| COc1cccc(C(=O)Nc2cc3n(n2)CCN3c2cccc(Cl)c2)c1 [Compound I-239] | 92% | – |
| O=C(Nc1cc2n(n1)CCN2c1cccc(Cl)c1)c1cccc(O)c1 [Compound I-240] | 91% | – |
| O=C(Nc1cc2n(n1)CCN2c1cccc(Cl)c1)c1ccc2nccn2c1 [Compound I-241] | 84% | – |
| O=C(Cn1ccnc1)Nc1cc2n(n1)CCN2c1cccc(Cl)c1 [Compound I-242] | ≥ 95% | – |
| CS(=O)(=O)Nc1ccc(CC(=O)Nc2cc3n(n2)CCN3c2cccc(Cl)c2)cc1 [Compound I-243] | 81% | – |
| CC(=O)NCCC(=O)Nc1cc2n(n1)CCN2c1cccc(Cl)c1 [Compound I-244] | 87% | – |
| O=C(Nc1cc2n(n1)CCN2c1cccc(Cl)c1)c1nccs1 [Compound I-245] | 76% | – |
| O=C(Nc1cc2n(n1)CCN2c1cccc(Cl)c1)c1ccn[nH]1 [Compound I-246] | 90% | – |
| O=C(O)c1cccc(C(=O)Nc2cc3n(n2)CCN3c2cccc(Cl)c2)c1 [Compound I-247] | 95% | – |
| NC(=O)CCC(=O)Nc1cc2n(n1)CCN2c1cccc(Cl)c1 [Compound I-249] | ≥ 95% | – |
| CNC(=O)Nc1cc2n(n1)CCN2c1cc(C#CC2CCN(C(=O)OC(C)(C)C)CC2)cc(C(=O)N2CCOCC2)c1 [Compound I-250] | ≥ 95% | – |
| COc1cccc(CC(=O)Nc2nc3c(s2)CN(c2cc(OC)nc(OC)n2)CC3)c1 [Compound I-251] | – | 88% |
| COc1cc(N2CCc3nc(NC(=O)NCC(=O)OC(C)(C)C)sc3C2)nc(OC)n1 [Compound I-252] | – | 88% |
